Values of other authors as cited in US20220249345A1, “PRODUCT FOR TREATING KERATINOUS FIBERS, CONTAINING SILANES OF SPECIFIC FORMULAE” (Henkel AG & Co. KGaA, priority 2019, published 2022).
Read-outs that look alike come from different tables or passages of the source.

SMILES | solubility in water (25° C.) | solubility in water (at about 25° C.)
O=S(=O)([O-])c1ccc(N=Nc2c(O)ccc3ccccc23)cc1.[Na+] [Acid Orange 7, sodium salt of 4-[(2-hydroxy-1-naphthyl)azo]benzene sulphonate] | more than 7 g/L | –
O=C([O-])C1=NN(c2ccc(S(=O)(=O)[O-])cc2)C(=O)C1N=Nc1ccc(S(=O)(=O)[O-])cc1.[Na+].[Na+].[Na+] (stereo not drawn) [Acid Yellow 23, trisodium salt of 4,5-dihydro-5-oxo-1-(4-sulfophenyl)-4-((4-sulfophenyl)azo)-1H-pyrazole-3-carboxylic acid] | – | highly soluble in water
Nc1cc(S(=O)(=O)[O-])cc2cc(S(=O)(=O)[O-])c(N=Nc3ccccc3)c(O)c12.[Na+].[Na+] [Acid Red 33, diantrium salt of 5-amino-4-hydroxy-3-(phenylazo)-naphthalene-2,7-disulphonate] | about 2.5 g/L | –
